Measurements: patent US20050003029A1, “UTILIZATION OF RUTINS AND AESCINS IN THE TREATMENT OF OCULAR CIRCULATORY DISTURBANCES” (priority 2001, published 2005)

Test system: retinal hemorrhages and vascular leakages
Test: Efficacy case examples: oral therapy of patients with retinal hemorrhages and vascular leakages, detected by fluorescence angiography
Type: in vivo, human
Conditions: orally daily
Source text: (§1) patient with severe visual impairment.
2 relatively small intraretinal hemorrhages on the retina existed, further 8 vascular leakages stainable with fluorescein sodium and detectable using fluorescence angiography. The finding existed for 4 months with the tendency to worsen. The basic disease present was a generalized sclerotic vascular complaint.
patient with suddenly commencing visual impairment, which had existed for 5 months.
A relatively large intraretinal strip hemorrhage existed as a result of a branch vein thrombosis, further 3 vascular leakages detectable by fluorescence angiography. The basic disease present was latent diabetes mellitus.
as §1
1 relatively large and 2 smaller retinal hemorrhages existed; further three vascular leakages which were detectable using fluorescence angiography. The basic disease was a generalized vascular complaint. The finding existed for 5 months with the tendency for increasing worsening.
as §1
A large subretinal hemorrhage existed, further 2 vascular leakages detectable by fluorescence angiography. A risk factor to be seen was the taking for years of a hormonal anticontraceptive.

CC1OC(OCC2OC(Oc3c(-c4ccc(OCCO)c(OCCO)c4)oc4cc(OCCO)cc(O)c4c3=O)C(O)C(O)C2O)C(O)C(O)C1O (stereo not drawn) [troxerutin, 3′,4′,7-tris-O-(β-hydroxyethyl)rutin]
leakages sealed (Case example 1, after 2 weeks): 1 leakages
leakages sealed (total) (Case example 1, after 4 weeks): 3 leakages
intraretinal hemorrhages (status) (Case example 1, four-week therapy, 2 relatively small hemorrhages): unchanged
vascular leakages (status) (Case example 2, three-week therapy, 3 leakages before): unchanged
resorption of intraretinal strip hemorrhage (Case example 2, three-week therapy, measured by the starting size): 10%
resorption of a small hemorrhage (Case example 3, patient, three-week therapy): low-grade beginning of resorption
leakages sealed (Case example 3, three-week therapy): 1 leakages
leakages sealed (Case example 4, 2 leakages before): 1 leakages
resorption of the large subretinal hemorrhage (Case example 4, combination three weeks, measured by the starting size): approximately 5%
